Experimental data taken from patent US8871753B2, “Macrocyclic compounds and their use as kinase inhibitors” (Incyte Corporation, priority 2008, dated 2014).
Where a name gives a salt, the structure may show the parent alone. Read-outs that look alike come from different tables or passages of the source. Each block holds one compound with its values, some of them ahead of it.

Columns and labels:
Type in all cases: biochemical
[1] = biological target: T1, human JAK3 (a.a. 781-1124) (Homo sapiens, UniProt P52333); assay: In vitro JAK kinase assay (HTRF, phosphorylation of a biotinylated peptide), JAK3
T1 construct: JAK3 (a.a. 781-1124); His tag (N); made in house; host or cells: insect cells (baculovirus)
Method in brief: (§1)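 Kinase activity was measured as phosphorylation of a biotinylated peptide, with ATP at 90 μM for JAK1, 30 μM for JAK2 and 3 μM for JAK3. Reactions ran 1 hr at room temperature, were stopped with EDTA plus SA-APC and Eu-Py20, and were read by HTRF after 40 minutes of antibody binding.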

[2] = biological target: T2, human JAK2 (a.a. 828-1132) (Homo sapiens, UniProt O60674); assay: In vitro JAK kinase assay (HTRF, phosphorylation of a biotinylated peptide), JAK2
T2 construct: JAK2 (a.a. 828-1132); His tag (N); made in house; host or cells: insect cells (baculovirus)
Method in brief: as §1

TYK2 = TYK2 (Homo sapiens, UniProt P29597); assay: TYK2 kinase inhibition (Table A1)
[3] = biological target: T3, Recombinant Human Anaplastic Lymphoma Kinase (Homo sapiens, UniProt Q9UM73); assay: ALK HTRF kinase assay
T3 construct: purchased Invitrogen, Carlsbad, Calif
Method in brief: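 Biotinylated peptide substrate, recombinant human ALK; detection via europium-chelate antibody to phosphotyrosine paired with streptavidin-APC. Potency expressed as IC50 from four-parameter curve fitting.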

[4] = biological target: T4, human JAK1 (a.a. 837-1142) (Homo sapiens, UniProt P23458); assay: In vitro JAK kinase assay (HTRF, phosphorylation of a biotinylated peptide), JAK1; conditions: read-out: JAK1 IC50
T4 construct: human JAK1 (a.a. 837-1142); His tag (N); made in house; host or cells: insect cells (baculovirus)
Method in brief: as §1

[5] = compound at a concentration of 500 nM or 1 mM (not specified), cells shown as percentage
[6] = method AA1 (3 μM ATP) or AA2 (1000 μM ATP), not stated per value
[7] = method AA1 (30 μM ATP) or AA2 (1000 μM ATP), not stated per value
[8] = compound at 500 nM or 1 mM, 90 μM ATP
[9] = method AA1 (90 μM ATP) or AA2 (1000 μM ATP), not stated per value
[10] = Table B1, cells without percent sign

T4 sequence (P23458 849-1154): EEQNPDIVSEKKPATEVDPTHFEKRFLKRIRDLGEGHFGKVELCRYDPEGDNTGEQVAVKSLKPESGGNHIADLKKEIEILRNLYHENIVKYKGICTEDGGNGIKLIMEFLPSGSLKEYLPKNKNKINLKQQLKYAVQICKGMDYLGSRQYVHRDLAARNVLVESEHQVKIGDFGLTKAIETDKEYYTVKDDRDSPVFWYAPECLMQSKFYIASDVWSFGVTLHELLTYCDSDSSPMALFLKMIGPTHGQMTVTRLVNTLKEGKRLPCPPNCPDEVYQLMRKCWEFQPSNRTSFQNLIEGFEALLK
T3 sequence (Q9UM73 19-1620): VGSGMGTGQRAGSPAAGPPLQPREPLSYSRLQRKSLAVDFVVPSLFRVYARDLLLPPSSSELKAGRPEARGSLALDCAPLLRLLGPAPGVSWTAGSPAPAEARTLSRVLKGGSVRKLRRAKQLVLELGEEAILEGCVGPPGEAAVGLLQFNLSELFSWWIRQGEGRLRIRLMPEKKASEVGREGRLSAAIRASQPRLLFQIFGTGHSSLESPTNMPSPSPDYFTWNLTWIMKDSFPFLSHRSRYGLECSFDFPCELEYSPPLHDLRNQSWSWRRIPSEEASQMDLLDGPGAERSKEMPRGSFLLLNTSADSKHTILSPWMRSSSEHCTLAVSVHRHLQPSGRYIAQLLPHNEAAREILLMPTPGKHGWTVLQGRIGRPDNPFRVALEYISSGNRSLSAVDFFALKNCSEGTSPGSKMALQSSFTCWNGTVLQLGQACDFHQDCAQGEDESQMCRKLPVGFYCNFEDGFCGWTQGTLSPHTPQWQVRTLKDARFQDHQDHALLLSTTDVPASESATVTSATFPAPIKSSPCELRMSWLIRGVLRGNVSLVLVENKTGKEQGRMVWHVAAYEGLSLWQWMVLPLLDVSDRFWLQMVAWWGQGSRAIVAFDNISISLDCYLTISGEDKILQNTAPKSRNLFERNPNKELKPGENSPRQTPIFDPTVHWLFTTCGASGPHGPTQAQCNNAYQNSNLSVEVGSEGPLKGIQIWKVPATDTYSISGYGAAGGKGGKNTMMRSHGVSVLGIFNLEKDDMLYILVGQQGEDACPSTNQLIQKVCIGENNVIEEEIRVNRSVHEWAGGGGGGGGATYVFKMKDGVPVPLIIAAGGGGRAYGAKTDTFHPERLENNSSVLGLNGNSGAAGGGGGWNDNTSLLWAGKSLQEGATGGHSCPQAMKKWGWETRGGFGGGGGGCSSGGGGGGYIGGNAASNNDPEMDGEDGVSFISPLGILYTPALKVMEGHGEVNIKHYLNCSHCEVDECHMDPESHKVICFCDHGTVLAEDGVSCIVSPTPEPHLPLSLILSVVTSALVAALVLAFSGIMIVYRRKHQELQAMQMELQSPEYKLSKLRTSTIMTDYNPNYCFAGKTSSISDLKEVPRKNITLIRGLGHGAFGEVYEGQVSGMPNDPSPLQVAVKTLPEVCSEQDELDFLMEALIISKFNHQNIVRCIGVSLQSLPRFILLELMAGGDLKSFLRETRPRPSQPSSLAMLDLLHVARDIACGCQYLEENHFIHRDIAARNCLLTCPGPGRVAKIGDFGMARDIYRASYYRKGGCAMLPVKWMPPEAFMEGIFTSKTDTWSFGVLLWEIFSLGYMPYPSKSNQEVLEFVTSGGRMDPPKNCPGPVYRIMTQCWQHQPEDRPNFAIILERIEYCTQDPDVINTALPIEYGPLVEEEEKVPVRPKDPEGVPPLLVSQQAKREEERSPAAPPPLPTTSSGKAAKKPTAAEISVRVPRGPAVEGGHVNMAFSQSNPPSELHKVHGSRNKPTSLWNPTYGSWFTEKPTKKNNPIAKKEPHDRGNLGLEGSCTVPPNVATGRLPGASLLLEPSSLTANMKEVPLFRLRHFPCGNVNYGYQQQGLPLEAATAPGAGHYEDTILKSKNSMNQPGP
T2 sequence (O60674 828-1132): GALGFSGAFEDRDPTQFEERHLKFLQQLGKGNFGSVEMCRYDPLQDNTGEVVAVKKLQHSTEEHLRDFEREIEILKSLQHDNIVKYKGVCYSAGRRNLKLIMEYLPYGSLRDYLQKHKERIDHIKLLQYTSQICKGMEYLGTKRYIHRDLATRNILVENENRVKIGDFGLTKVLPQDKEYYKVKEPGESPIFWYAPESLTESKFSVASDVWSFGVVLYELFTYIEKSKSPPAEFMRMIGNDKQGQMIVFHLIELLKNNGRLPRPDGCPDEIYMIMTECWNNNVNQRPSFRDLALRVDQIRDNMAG
Sequence of TYK2 (P29597 whole entry): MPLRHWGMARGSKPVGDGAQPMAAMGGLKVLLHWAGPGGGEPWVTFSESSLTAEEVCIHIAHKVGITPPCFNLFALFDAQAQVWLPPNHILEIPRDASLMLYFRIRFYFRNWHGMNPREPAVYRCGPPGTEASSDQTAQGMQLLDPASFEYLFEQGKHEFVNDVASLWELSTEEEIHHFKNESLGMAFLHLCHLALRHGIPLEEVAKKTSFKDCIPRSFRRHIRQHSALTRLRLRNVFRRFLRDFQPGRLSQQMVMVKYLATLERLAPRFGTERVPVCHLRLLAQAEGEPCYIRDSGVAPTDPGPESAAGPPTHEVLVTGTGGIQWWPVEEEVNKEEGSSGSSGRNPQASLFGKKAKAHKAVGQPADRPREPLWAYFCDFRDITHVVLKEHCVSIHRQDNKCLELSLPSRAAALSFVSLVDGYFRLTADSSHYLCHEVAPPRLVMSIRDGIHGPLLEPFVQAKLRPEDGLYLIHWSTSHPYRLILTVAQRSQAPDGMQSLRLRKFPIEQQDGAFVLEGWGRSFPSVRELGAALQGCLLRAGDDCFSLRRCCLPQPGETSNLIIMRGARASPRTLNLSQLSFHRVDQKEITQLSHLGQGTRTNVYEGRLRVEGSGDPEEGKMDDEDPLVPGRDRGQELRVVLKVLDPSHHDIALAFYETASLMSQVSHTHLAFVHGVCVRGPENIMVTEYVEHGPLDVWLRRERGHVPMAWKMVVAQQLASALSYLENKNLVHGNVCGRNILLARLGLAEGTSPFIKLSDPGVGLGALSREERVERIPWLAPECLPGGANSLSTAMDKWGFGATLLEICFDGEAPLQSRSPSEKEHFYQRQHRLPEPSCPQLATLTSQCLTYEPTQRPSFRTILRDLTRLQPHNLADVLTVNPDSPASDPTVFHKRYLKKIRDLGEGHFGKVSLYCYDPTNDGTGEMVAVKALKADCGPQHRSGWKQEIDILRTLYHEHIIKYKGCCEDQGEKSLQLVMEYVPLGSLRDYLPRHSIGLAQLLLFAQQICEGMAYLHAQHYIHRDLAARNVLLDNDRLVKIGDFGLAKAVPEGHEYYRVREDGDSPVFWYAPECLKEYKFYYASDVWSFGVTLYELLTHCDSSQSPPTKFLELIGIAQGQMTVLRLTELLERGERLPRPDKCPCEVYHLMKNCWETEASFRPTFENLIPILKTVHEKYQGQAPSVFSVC
T1 sequence (P52333 781-1124): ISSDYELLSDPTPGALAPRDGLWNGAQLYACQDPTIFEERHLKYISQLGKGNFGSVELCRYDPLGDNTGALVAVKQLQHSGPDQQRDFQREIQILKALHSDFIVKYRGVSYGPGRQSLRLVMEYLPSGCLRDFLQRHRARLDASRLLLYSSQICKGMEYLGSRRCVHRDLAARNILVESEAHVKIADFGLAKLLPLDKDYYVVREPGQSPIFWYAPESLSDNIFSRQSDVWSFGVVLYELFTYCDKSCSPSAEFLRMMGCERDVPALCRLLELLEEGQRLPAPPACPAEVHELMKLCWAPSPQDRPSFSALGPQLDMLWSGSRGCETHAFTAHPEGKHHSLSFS

Structure (SMILES): O=C(CC1CCN(c2nncs2)CC1)Nc1ccc2cc1CCc1cncc(c1)Nc1ncc(Cl)c(n1)N2 [Example A174, tris(trifluoroacetate)]
IC50 [1, 6]: > 1000 nM
IC50 [2, 7]: 124 nM
IC50 (TYK2): 72 nM
ALK % of inhibition at a concentration of 500 nM or 1 mM [3, 8]: 33%
IC50 [4, 9]: 4.1 nM

Structure (SMILES): O=C(CC1CCN(S(=O)(=O)c2ccccc2OC(F)(F)F)CC1)Nc1ccc2cc1CCc1cncc(c1)Nc1ncc(Cl)c(n1)N2 [Example A227, N-[6-Chloro-2,4,8,18,22-pentaazatetracyclo[14.3.1.1(3,7).1(9,13)]docosa-1(20),3(22),4,6,9(21),10,12,16,18-nonaen-12-yl]-2-(1-{[2-(trifluoromethoxy)phenyl]sulfonyl}piperidin-4-yl)acetamide bis(trifluoroacetate)]
IC50 [1, 6]: > 400 nM
IC50 [2, 7]: > 400 nM
IC50 (TYK2): > 400 nM
ALK % of inhibition at a concentration of 500 nM or 1 mM [3, 8]: 22%
IC50 [4, 9]: 10 nM

Structure (SMILES): COC(=O)c1cc2cc(c1)Nc1nc(ncc1Cl)Nc1cccc(c1)CC2 [Example B5, Methyl 6-chloro-2,4,8,22-tetraazatetracyclo[14.3.1.1(3,7).1(9,13)]docosa-1(20),3(22),4,6,9(21),10,12,16,18-nonaene-11-carboxylate trifluoroacetate]
IC50 ([1]; Table B1): 83 nM
IC50 ([2]; Table B1): 44 nM
IC50 (TYK2; Table B1): 165 nM
IC50 [3, 10]: > 1000 nM
IC50 ([4]; Table B1): 107 nM

Structure (SMILES): N#Cc1cccc(S(=O)(=O)N2CCC(CC(=O)Nc3ccc4cc3CCc3cncc(c3)Nc3ncc(Cl)c(n3)N4)CC2)c1 [Example A228, N-[6-Chloro-2,4,8,18,22-pentaazatetracyclo[14.3.1.1(3,7).1(9,13)]docosa-1(20),3(22),4,6,9(21),10,12,16,18-nonaen-12-yl]-2-{1-[(3-cyanophenyl)sulfonyl]piperidin-4-yl}acetamide bis(trifluoroacetate)]
IC50 [1, 6]: > 400 nM
IC50 [2, 7]: 114 nM
IC50 (TYK2): 109 nM
ALK % of inhibition at a concentration of 500 nM or 1 mM [3, 8]: 62%
IC50 [4, 9]: 6.9 nM

Structure (SMILES): O=C(Nc1ccc2cc1CCc1cccc(c1)Nc1ncc(Cl)c(n1)N2)C1CCCC1 [Example B60, N-[6-Chloro-2,4,8,22-tetraazatetracyclo[14.3.1.1(3,7).1(9,13)]docosa-1(20), 3(22),4,6,9(21),10,12,16,18-nonaen-12-yl]cyclopentanecarboxamide trifluoroacetate]
IC50 ([1]; Table B1): 20 nM
IC50 ([2]; Table B1): 8.4 nM
IC50 (TYK2; Table B1): 47 nM
IC50 [3, 10]: > 1000 nM
IC50 ([4]; Table B1): 22 nM

Structure (SMILES): Cc1cc(C(=O)N2CCC(CC(=O)Nc3ccc4cc3CCc3cncc(c3)Nc3ncc(Cl)c(n3)N4)CC2)n[nH]1 [Example A163, N-[6-Chloro-2,4,8,18,22-pentaazatetracyclo[14.3.1.1(3,7).1(9,13)]docosa-1(20),3(22),4,6,9(21),10,12,16,18-nonaen-12-yl]-2-{1-[(5-methyl-1H-pyrazol-3-yl)carbonyl]piperidin-4-yl}acetamide bis(trifluoroacetate)]
IC50 [1, 6]: > 100 nM
IC50 [2, 7]: 36 nM
IC50 (TYK2): 3 nM
ALK % of inhibition at a concentration of 500 nM or 1 mM [3, 8]: 29%
IC50 [4, 9]: 0.5 nM

The remaining lines, values ahead:

IC50 ([1]; Table B1): > 400 nM
IC50 ([2]; Table B1): 341 nM
IC50 (TYK2; Table B1): 208 nM
ALK % of inhibition at a concentration of 500 nM or 1 mM [3, 5]: 62%
IC50 ([4]; Table B1): 29 nM
Structure (SMILES): COc1ccccc1N1CCN(C(=O)Nc2ccc3cc2CCc2cncc(c2)Nc2ncc(Cl)c(n2)N3)CC1 [Example B298, N-[6-Chloro-2,4,8,18,22-pentaazatetracyclo[14.3.1.1(3,7).1(9,13)]docosa-1(20),3(22),4,6,9(21),10,12,16,18-nonaen-12-yl]-4-(2-methoxyphenyl)piperazine-1-carboxamide tris(trifluoroacetate)]

IC50 ([1]; Table B1): 63 nM
IC50 ([2]; Table B1): 13 nM
IC50 (TYK2; Table B1): 33 nM
ALK % of inhibition at a concentration of 500 nM or 1 mM [3, 5]: 5.9%
IC50 ([4]; Table B1): 7.3 nM
Structure (SMILES): O=C(Nc1ccc2cc1CCc1cccc(c1)Nc1ncc(Cl)c(n1)N2)Nc1ccccc1OC(F)(F)F [Example B131, N-[6-Chloro-2,4,8,22-tetraazatetracyclo[14.3.1.1(3,7).1(9,13)]docosa-1(20), 3(22),4,6,9(21),10,12,16,18-nonaen-12-yl]-N′-[2-(trifluoromethoxy)phenyl]urea trifluoroacetate]

IC50 ([1]; Table B1): 11 nM
IC50 ([2]; Table B1): 0.14 nM
IC50 (TYK2; Table B1): 0.5 nM
IC50 [3, 10]: 430 nM
IC50 ([4]; Table B1): 0.35 nM
Structure (SMILES): Cc1noc(C)c1S(=O)(=O)Nc1ccc2cc1CCc1cccc(c1)Nc1ncc(Cl)c(n1)N2 [Example B152, N-[6-Chloro-2,4,8,22-tetraazatetracyclo[14.3.1.1(3,7).1(9,13)]docosa-1(20),3(22),4,6,9(21),10,12,16,18-nonaen-12-yl]-3,5-dimethylisoxazole-4-sulfonamide trifluoroacetate]

IC50 ([1]; Table B1): 73 nM
IC50 ([2]; Table B1): 7.7 nM
IC50 (TYK2; Table B1): 20 nM
IC50 [3, 10]: > 1000 nM
IC50 ([4]; Table B1): 5.2 nM
Structure (SMILES): Cc1cccc(NC(=O)Nc2ccc3cc2CCc2cccc(c2)Nc2ncc(Cl)c(n2)N3)c1 [Example B90, N-[6-Chloro-2,4,8,22-tetraazatetracyclo[14.3.1.1(3,7).1(9,13)]docosa-1(20), 3(22),4,6,9(21),10,12,16,18-nonaen-12-yl]-N′-(3-methylphenyl)urea trifluoroacetate]

IC50 ([1]; Table D1): 9.9 nM
IC50 ([2]; Table D1): 0.7 nM
IC50 (TYK2; Table D1): 1.4 nM
IC50 ([3]; Table D1, 90 μM ATP): 248 nM
IC50 ([4]; Table D1): 0.9 nM
Structure (SMILES): CC(=O)N1CCN(c2ccc(-c3cc4cc(c3)Nc3ncc(Cl)c(n3)Nc3cccc(c3)OCC4)cn2)CC1 [Example D37, 19-[6-(4-Acetylpiperazin-1-yl)pyridin-3-yl]-6-chloro-14-oxa-2,4,8,23-tetraazatetracyclo[15.3.1.1(3,7).1(9,13)]tricosa-1(21),3(23),4,6,9(22),10,12,17,19-nonaene tris(trifluoroacetate)]

IC50 ([1]; Table B1): 43 nM
IC50 ([2]; Table B1): 12 nM
IC50 (TYK2; Table B1): 30 nM
ALK % of inhibition at a concentration of 500 nM or 1 mM [3, 5]: 17%
IC50 ([4]; Table B1): 3.7 nM
Structure (SMILES): O=C(Nc1ccc2cc1CCc1cccc(c1)Nc1ncc(Cl)c(n1)N2)N[C@H]1CCNC1 [Example B167, N-[6-Chloro-2,4,8,22-tetraazatetracyclo[14.3.1.1(3,7).1(9,13)]docosa-1(20),3(22),4,6,9(21),10,12,16,18-nonaen-12-yl]-N′-[(3S)-pyrrolidin-3-yl]urea bis(trifluoroacetate)]

IC50 ([1]; Table B1): 63 nM
IC50 ([2]; Table B1): 11 nM
IC50 (TYK2; Table B1): 19 nM
ALK % of inhibition at a concentration of 500 nM or 1 mM [3, 5]: 10%
IC50 ([4]; Table B1): 6 nM
Structure (SMILES): O=C(Nc1ccc2cc1CCc1cccc(c1)Nc1ncc(Cl)c(n1)N2)N[C@H]1CCN(C(=O)C2CC2)C1 [Example B228, N-[6-Chloro-2,4,8,22-tetraazatetracyclo[14.3.1.1(3,7).1(9,13)]docosa-1(20),3(22),4,6,9(21),10,12,16,18-nonaen-12-yl]-N′-[(3S)-1-(cyclopropylcarbonyl)pyrrolidin-3-yl]urea trifluoroacetate]

IC50 ([1]; Table D1): 67 nM
IC50 ([2]; Table D1): 106 nM
IC50 (TYK2; Table D1): 191 nM
IC50 ([3]; Table D1, 90 μM ATP): 1330 nM
IC50 ([4]; Table D1): 83 nM
Structure (SMILES): Clc1cnc2nc1Nc1cccc(c1)CNCc1cccc(c1)N2 [Example D73, 6-Chloro-2,4,8,15,23-pentaazatetracyclo[15.3.1.1(3,7).1(9,13)]tricosa-1(21),3(23),4,6,9(22),10,12,17,19-nonaene bis(trifluoroacetate)]
